Counter-ions that a name gives are not always drawn.

human CXCR3-A receptor, sequence (P49682 whole entry): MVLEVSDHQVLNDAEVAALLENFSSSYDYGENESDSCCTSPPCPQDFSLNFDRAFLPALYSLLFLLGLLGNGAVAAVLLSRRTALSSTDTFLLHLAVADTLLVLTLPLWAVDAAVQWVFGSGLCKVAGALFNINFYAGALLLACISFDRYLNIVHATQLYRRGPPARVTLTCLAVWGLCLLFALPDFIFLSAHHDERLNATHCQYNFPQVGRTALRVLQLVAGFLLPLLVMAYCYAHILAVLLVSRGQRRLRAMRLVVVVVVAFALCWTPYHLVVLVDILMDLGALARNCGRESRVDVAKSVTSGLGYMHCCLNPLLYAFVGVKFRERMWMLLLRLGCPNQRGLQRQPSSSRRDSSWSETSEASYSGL

One assay addresses human CXCR3-A receptor (Homo sapiens (Human), UniProt P49682). As to the kind of experiment: 125I-CXCL10 competition radioligand binding assay. The following applies: displacement of 125I-CXCL10 from membranes of CHO cells expressing human recombinant CXCR3-A. The method in brief: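 Membranes from a recombinant cell line expressing human CXCR3-A (10-20 μg protein) were incubated with 125I-CXCL10 and test compound for 60 min at 25° C, then filtered onto PEI-soaked GF/B filters and gamma-counted. IC50 and Hill slope came from four-parameter nonlinear fitting of competition curves.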
(In a radioligand displacement assay an active substance lowers the binding of a labelled ligand.)
In the case of `COc1cc(CN([C@H]2C[C@@H](C(=O)O)C2)[C@H](C)c2ccc(Cl)c(F)c2)ccc1OCCN1C(=O)CCC1=O` [Example 150, cis-3-([(R)-1-(4-Chloro-3-fluoro-phenyl)-ethyl]-{4-[2-(2,5-dioxo-pyrrolidin-1-yl)-ethoxy]-3-methoxy-benzyl}-amino)-cyclobutanecarboxylic acid], the IC50 (usually the point on the concentration scale where inhibition reaches its midpoint) was 98 nM.
With `CCc1cc(CN([C@H]2C[C@@H](C(=O)O)C2)[C@H](C)c2ccc(Cl)c(F)c2)ccc1OCCN1C(=O)CCC1=O` [Example 151, cis-3-([(R)-1-(4-Chloro-3-fluoro-phenyl)-ethyl]-{4-[2-(2,5-dioxo-pyrrolidin-1-yl)-ethoxy]-3-ethyl-benzyl}-amino)-cyclobutanecarboxylic acid], the IC50 came to 457 nM.
As for `COc1cc(CN([C@H]2C[C@@H](C(=O)O)C2)[C@H](C)c2ccc(Cl)c(Cl)c2)ccc1OCCN1C(=O)CCC1=O` [Example 152, cis-3-([(R)-1-(3,4-Dichloro-phenyl)-ethyl]-{4-[2-(2,5-dioxo-pyrrolidin-1-yl)-ethoxy]-3-methoxy-benzyl}-amino)-cyclobutanecarboxylic acid], the half-inhibitory concentration (IC50) was 149 nM.
On the same count and under the same terms, the same measure for `Cc1cc(CN([C@H]2C[C@@H](C(=O)O)C2)[C@H](C)c2ccc(Cl)cc2)ccc1OCCN1C(=O)CN(C)C1=O` [Example 153, cis-3-([(R)-1-(4-Chloro-phenyl)-ethyl]-{3-methyl-4-[2-(3-methyl-2,5-dioxo-imidazolidin-1-yl)-ethoxy]-benzyl}-amino)-cyclobutanecarboxylic acid]: 294 nM; for `COc1cc(CN(C[C@H]2CC[C@H](C(=O)O)CC2)C(C)c2ccc(C(F)(F)F)cc2)ccc1OCCN1C(=O)CCC1=O` (stereo partly drawn) [Example 154, trans-4-({{4-[2-(2,5-Dioxo-pyrrolidin-1-yl)-ethoxy]-3-methoxy-benzyl}-[1-(4-trifluoromethyl-phenyl)-ethyl]-amino}-methyl)-cyclohexanecarboxylic acid]: 70 nM.
Same read-out and setting: the same measure for `COc1cc(CN(C[C@H]2CC[C@H](C(=O)O)CC2)[C@H]2CCc3cc(Cl)ccc32)ccc1OCCN1C(=O)[C@H]2CC=CC[C@H]2C1=O` [Example 155, trans-4-[(((S)-5-Chloro-indan-1-yl)-{4-[2-((3aS,7aR)-1,3-dioxo-1,3,3a,4,7,7a-hexahydro-isoindol-2-yl)-ethoxy]-3-methoxy-benzyl}-amino)-methyl]-cyclohexanecarboxylic acid; hydrochloride]: 2870 nM.
As to `COc1cc(CN(C[C@H]2CC[C@H](C(=O)O)CC2)[C@H]2CCc3cc(Cl)ccc32)ccc1OCCN1C(=O)c2ccccc2C1=O` [Example 156, trans-4-[(((S)-5-Chloro-indan-1-yl)-{4-[2-(1,3-dioxo-1,3-dihydro-isoindol-2-yl)-ethoxy]-3-methoxy-benzyl}-amino)-methyl]-cyclohexanecarboxylic acid; hydrochloride], the IC50 was 79 nM.
Same read-out and setting: to `Cc1cc(CN(C[C@H]2CC[C@H](C(=O)O)CC2)[C@H]2CCc3c2ccc(Cl)c3F)ccc1OCCN1C(=O)CN(C)C1=O` [Example 157, trans-4-[(((S)-5-Chloro-4-fluoro-indan-1-yl)-{3-methyl-4-[2-(3-methyl-2,5-dioxo-imidazolidin-1-yl)-ethoxy]-benzyl}-amino)-methyl]-cyclohexanecarboxylic acid] belongs 71 nM; to `COc1cc(CN(CC2CC(C(=O)O)C2)[C@H]2CCc3cc(Cl)ccc32)ccc1OCCN1C(=O)CCC1=O` (stereo partly drawn) [Example 158, 3-[(((S)-5-Chloro-indan-1-yl)-{4-[2-(2,5-dioxo-pyrrolidin-1-yl)-ethoxy]-3-methoxy-benzyl}-amino)-methyl]-cyclobutanecarboxylic acid], 1060 nM.
For the molecule `COc1cc(CN([C@H]2C[C@@H](C(=O)O)C2)[C@H](C)c2ccc3c(c2)CCC3)ccc1OCCn1c(=O)ccn(C)c1=O` [Example 159, cis-3-(((R)-1-Indan-5-yl-ethyl)-{3-methoxy-4-[2-(3-methyl-2,6-dioxo-3,6-dihydro-2H-pyrimidin-1-yl)-ethoxy]-benzyl}-amino)-cyclobutanecarboxylic acid], the IC50 stood at 544 nM.

Still in this assay, the particulars now being: read-out: % at 10 μM; at 10 μM; displacement of 125I-CXCL10.
As to `COc1cc(CN([C@H]2C[C@H](C(=O)O)C2)[C@H](C)c2ccc3c(c2)CCC3)ccc1OCCn1c(=O)ccn(C)c1=O` [Example 160, trans-3-(((R)-1-Indan-5-yl-ethyl)-{3-methoxy-4-[2-(3-methyl-2,6-dioxo-3,6-dihydro-2H-pyrimidin-1-yl)-ethoxy]-benzyl}-amino)-cyclobutanecarboxylic acid], the inhibition at 10 µM was found to be 26%.
